From ChEMBL document CHEMBL1201862, “PubChem BioAssay data set” (2004)
“And” between values parts separate entries of the source, which are not always exact repeats. Equal values may be shown once.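 How tested: cells in 96-well plates exposed to compound for 48 hours at five concentrations. GI50: concentration for 50% inhibition of growth.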 The source made the active and inactive calls. No stated cut-off is given here; in the data, active = GI50 up to about 1.1 µM and inactive = higher.

Legend:
Assay in all cases: NCI-60 cell line screen, 48 h
786-0 = tested on: 786-0
A498 = tested on: A498
A549 = tested on: A549
ACHN = tested on: ACHN
BT-549 = tested on: BT-549
CAKI-1 = tested on: CAKI-1
COLO 205 = tested on: COLO 205
DU-145 = tested on: DU-145
EKVX = tested on: EKVX
HCC 2998 = tested on: HCC 2998
HCT-116 = tested on: HCT-116
HCT-15 = tested on: HCT-15
HL-60 = tested on: HL-60
HOP-62 = tested on: HOP-62
HT-29 = tested on: HT-29
Hs-578T = tested on: Hs-578T
IGROV-1 = tested on: IGROV-1
K562 = tested on: K562
KM12 = tested on: KM12
LOX IMVI = tested on: LOX IMVI
M14 = tested on: M14
MCF7 = tested on: MCF7
MDA-MB-231 = tested on: MDA-MB-231
MDA-MB-435 = tested on: MDA-MB-435
MOLT-4 = tested on: MOLT-4
Malme-3M = tested on: Malme-3M
NCI-H226 = tested on: NCI-H226
NCI-H23 = tested on: NCI-H23
NCI-H460 = tested on: NCI-H460
NCI-H522 = tested on: NCI-H522
NCI/ADR-RES = tested on: NCI/ADR-RES
OVCAR-3 = tested on: OVCAR-3
OVCAR-4 = tested on: OVCAR-4
OVCAR-5 = tested on: OVCAR-5
OVCAR-8 = tested on: OVCAR-8
PC-3 = tested on: PC-3
RPMI-8226 = tested on: RPMI-8226
RXF 393 = tested on: RXF 393
SF-268 = tested on: SF-268
SF-295 = tested on: SF-295
SK-MEL-28 = tested on: SK-MEL-28
SK-MEL-2 = tested on: SK-MEL-2
SK-MEL-5 = tested on: SK-MEL-5
SN12C = tested on: SN12C
SNB-19 = tested on: SNB-19
SNB-75 = tested on: SNB-75
SR = tested on: SR
SW-620 = tested on: SW-620
T47D = tested on: T47D
TK-10 = tested on: TK-10
U-251 = tested on: U-251
UACC-257 = tested on: UACC-257
UACC-62 = tested on: UACC-62
UO-31 = tested on: UO-31
HOP-92 = tested on: HOP-92
CCRF-CEM = tested on: CCRF-CEM
SF-539 = tested on: SF-539

COc1cc2c(cc1OCCCOc1cc3c(cc1OC)C(=O)N1CCC[C@H]1C(=O)N3)N=C[C@@H]1CCCN1C2=O
GI50 (786-0): 29 µM (inactive)
GI50 (A498): 17.3 µM (inactive)
GI50 (A549): 22.1 µM (inactive)
GI50 (ACHN): 17.1 µM (inactive)
GI50 (BT-549): 10.3 µM (inactive)
GI50 (CAKI-1): 29.9 µM (inactive)
GI50 (COLO 205): 3.61 µM (inactive)
GI50 (DU-145): 36.7 µM (inactive)
GI50 (EKVX): 17 µM (inactive)
GI50 (HCC 2998): 14.3 µM (inactive)
GI50 (HCT-116): 26.4 µM (inactive)
GI50 (HCT-15): 71.3 µM
GI50 (HL-60): 8.34 µM (inactive)
GI50 (HOP-62): 34.2 µM (inactive)
GI50 (HT-29): 16.9 µM (inactive)
GI50 (Hs-578T): 29 µM (inactive)
GI50 (IGROV-1): 14.6 µM (inactive)
GI50 (K562): 3.77 µM (inactive)
GI50 (KM12): 16.4 µM (inactive)
GI50 (LOX IMVI): 3.07 µM (inactive)
GI50 (M14): 20.3 µM (inactive)
GI50 (MCF7): 4.52 µM (inactive)
GI50 (MDA-MB-231): 14.9 µM (inactive)
GI50 (MDA-MB-435): 15.8 µM (inactive)
GI50 (MOLT-4): 0.206 µM (active)
GI50 (Malme-3M): 10.9 µM (inactive)
GI50 (NCI-H226): 14.6 µM (inactive)
GI50 (NCI-H23): 23.6 µM (inactive)
GI50 (NCI-H460): 19.9 µM (inactive)
GI50 (NCI-H522): 1.73 µM (inactive)
GI50 (NCI/ADR-RES): 76.7 µM (inactive)
GI50 (OVCAR-3): 19.5 µM (inactive)
GI50 (OVCAR-4): 18.5 µM (inactive)
GI50 (OVCAR-5): 25.1 µM (inactive)
GI50 (OVCAR-8): 23.4 µM (inactive)
GI50 (PC-3): 13.6 µM (inactive)
GI50 (RPMI-8226): 6.46 µM (inactive)
GI50 (RXF 393): 13.3 µM (inactive)
GI50 (SF-268): 4.82 µM (inactive)
GI50 (SF-295): 15.8 µM (inactive)
GI50 (SK-MEL-28): 21 µM (inactive)
GI50 (SK-MEL-2): 12.6 µM (inactive)
GI50 (SK-MEL-5): 12.5 µM (inactive)
GI50 (SN12C): 15.7 µM (inactive)
GI50 (SNB-19): 27.3 µM (inactive)
GI50 (SNB-75): 10.1 µM (inactive)
GI50 (SR): 1.54 µM (inactive)
GI50 (SW-620): 11 µM (inactive)
GI50 (T47D): 7.94 µM (inactive)
GI50 (TK-10): 25.8 µM (inactive)
GI50 (U-251): 4.65 µM (inactive)
GI50 (UACC-257): 24.5 µM (inactive)
GI50 (UACC-62): 6.62 µM (inactive)
GI50 (UO-31): 18.5 µM (inactive)

CC(=O)OCC1OC(n2c(S)c(C#N)c(-c3ccccc3)c(C#N)c2=O)C(OC(C)=O)C(OC(C)=O)C1OC(C)=O (stereo unspecified)
GI50 (786-0): 30 µM (inactive) and 33.9 µM (inactive)
GI50 (A549): > 100 µM (inactive)
GI50 (ACHN): 54.1 µM (inactive) and 78.5 µM (inactive)
GI50 (CAKI-1): 50.8 µM (inactive) and 61.9 µM (inactive)
GI50 (DU-145): 58.3 µM (inactive)
GI50 (HCT-15): > 100 µM
GI50 (HOP-62): 21.7 µM (inactive) and 21.9 µM (inactive)
GI50 (HOP-92): 31.3 µM (inactive) and 16.6 µM (inactive)
GI50 (Hs-578T): 38.8 µM (inactive)
GI50 (IGROV-1): 53 µM (inactive)
GI50 (K562): > 100 µM (inactive)
GI50 (NCI-H226): > 87.7 µM (inactive)
GI50 (NCI-H460): 50.2 µM (inactive) and > 88.7 µM (inactive)
GI50 (NCI/ADR-RES): > 100 µM (inactive)
GI50 (RXF 393): 19.5 µM (inactive) and 18.5 µM (inactive)
GI50 (SF-268): 21.8 µM (inactive) and 33 µM (inactive)
GI50 (SNB-19): 32.2 µM (inactive)
GI50 (SNB-75): 26.2 µM (inactive) and 20.1 µM (inactive)
GI50 (U-251): 23.8 µM (inactive) and 35.2 µM (inactive)

N#Cc1ccc2[nH]c3c(c2c1)CC(=O)Nc1ccccc1-3 [PAULLONE 2]
GI50 (786-0): > 100 µM (inactive)
GI50 (A498): > 100 µM (inactive)
GI50 (A549): > 100 µM (inactive)
GI50 (ACHN): > 100 µM (inactive)
GI50 (BT-549): > 100 µM (inactive)
GI50 (CAKI-1): > 100 µM (inactive)
GI50 (CCRF-CEM): > 100 µM (inactive)
GI50 (COLO 205): > 100 µM (inactive)
GI50 (EKVX): > 100 µM (inactive)
GI50 (HCC 2998): > 100 µM (inactive)
GI50 (HCT-116): 21.5 µM (inactive)
GI50 (HCT-15): > 100 µM
GI50 (HL-60): > 100 µM (inactive)
GI50 (HOP-62): > 100 µM (inactive)
GI50 (HOP-92): > 100 µM (inactive)
GI50 (HT-29): > 100 µM (inactive)
GI50 (Hs-578T): > 100 µM (inactive)
GI50 (IGROV-1): 99.8 µM (inactive)
GI50 (K562): > 100 µM (inactive)
GI50 (LOX IMVI): > 100 µM (inactive)
GI50 (M14): > 100 µM (inactive)
GI50 (MCF7): > 100 µM (inactive)
GI50 (MDA-MB-231): > 100 µM (inactive)
GI50 (MDA-MB-435): > 100 µM (inactive)
GI50 (MOLT-4): > 100 µM (inactive)
GI50 (NCI-H226): > 100 µM (inactive)
GI50 (NCI-H23): > 100 µM (inactive)
GI50 (NCI-H460): > 100 µM (inactive)
GI50 (NCI-H522): 28.8 µM (inactive)
GI50 (NCI/ADR-RES): > 100 µM (inactive)
GI50 (OVCAR-3): > 100 µM (inactive)
GI50 (OVCAR-4): > 100 µM (inactive)
GI50 (OVCAR-5): > 100 µM (inactive)
GI50 (OVCAR-8): > 100 µM (inactive)
GI50 (PC-3): > 100 µM (inactive)
GI50 (RPMI-8226): > 100 µM (inactive)
GI50 (RXF 393): > 100 µM (inactive)
GI50 (SF-268): > 100 µM (inactive)
GI50 (SF-295): > 100 µM (inactive)
GI50 (SF-539): > 100 µM (inactive)
GI50 (SK-MEL-28): > 100 µM (inactive)
GI50 (SK-MEL-2): > 100 µM (inactive)
GI50 (SK-MEL-5): > 100 µM (inactive)
GI50 (SNB-19): > 100 µM (inactive)
GI50 (SNB-75): > 100 µM (inactive)
GI50 (SR): 2.9 µM (inactive)
GI50 (SW-620): > 100 µM (inactive)
GI50 (T47D): > 100 µM (inactive)
GI50 (TK-10): > 100 µM (inactive)
GI50 (U-251): > 100 µM (inactive)
GI50 (UACC-257): > 100 µM (inactive)
GI50 (UACC-62): > 100 µM (inactive)
GI50 (UO-31): > 100 µM (inactive)
